Experimental data published in patent US5593984A, “Cephalosporin derivatives” (Yuhan Corporation, priority 1992, dated 1997).
Converted amounts (≈) assume the structure as drawn.

Tests used:
Format in all cases: cell-based
B. subtilis ATCC 6633 = assay: MIC by agar dilution, B. subtilis ATCC 6633; details: Bacillus subtilis, ATCC6633, 17 h; B. subtilis ATCC 6633; agar dilution, Mueller-Hinton agar; read-out: Minimal Inhibitory Concentration (MIC)
In short: (§1)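 MIC is the endpoint, obtained by agar dilution after 17±1 hours at 35°-37° C. on Mueller-Hinton agar containing doubling compound concentrations; strains inoculated at 10^6 CFU per ml.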

Staph. aureus ATCC 6538P = assay: MIC by agar dilution, Staph. aureus ATCC 6538P; details: Staphylococcus aureus, ATCC6538P, 17 h; Staph. aureus ATCC 6538P; agar dilution, Mueller-Hinton agar; read-out: Minimal Inhibitory Concentration (MIC)
In short: as §1

Staph. aureus Smith = assay: MIC by agar dilution, Staph. aureus Smith; details: Staphylococcus aureus, 17 h, Mueller-Hinton agar, read-out: Minimal Inhibitory Concentration (MIC)
In short: as §1

Staph. aureus C-57 = assay: MIC by agar dilution, Staph. aureus C-57; details: Staphylococcus aureus, C57, 17 h, Mueller-Hinton agar, read-out: Minimal Inhibitory Concentration (MIC)
In short: as §1

Staph. aureus C-5113 = assay: MIC by agar dilution, Staph. aureus C-5113; details: Staphylococcus aureus, C5113, 17 h, Mueller-Hinton agar, read-out: Minimal Inhibitory Concentration (MIC)
In short: as §1

Staph. aureus C-5216 = assay: MIC by agar dilution, Staph. aureus C-5216; details: Staphylococcus aureus, C5216, 17 h, Mueller-Hinton agar, read-out: Minimal Inhibitory Concentration (MIC)
In short: as §1

[1] = system: S. epidermidis ATCC 12228; assay: MIC by agar dilution, S. epidermidis ATCC 12228; details: Staphylococcus epidermidis, ATCC12228, 17 h; S. epidermidis ATCC 12228; agar dilution, Mueller-Hinton agar; read-out: Minimal Inhibitory Concentration (MIC)
In short: as §1

Ent. aerogenes IFO 12979 = assay: MIC by agar dilution, Ent. aerogenes IFO 12979; details: Klebsiella aerogenes, IFO12979, 17 h, Mueller-Hinton agar, read-out: Minimal Inhibitory Concentration (MIC)
In short: as §1

Ent. cloacae IFO 13535 = assay: MIC by agar dilution, Ent. cloacae IFO 13535; details: Enterobacter cloacae, IFO13535, 17 h; Ent. cloacae IFO 13535; agar dilution, Mueller-Hinton agar; read-out: Minimal Inhibitory Concentration (MIC)
In short: as §1

E. coli NIHJ JC-2 = assay: MIC by agar dilution, E. coli NIHJ JC-2; details: Escherichia coli, NIHJJC2, 17 h; E. coli NIHJ JC-2; agar dilution, Mueller-Hinton agar; read-out: Minimal Inhibitory Concentration (MIC)
In short: as §1

E. coli No. 29 = assay: MIC by agar dilution, E. coli No. 29; details: Escherichia coli, 17 h; E. coli No. 29; agar dilution, Mueller-Hinton agar; read-out: Minimal Inhibitory Concentration (MIC)
In short: as §1

E. coli DY-1 = assay: MIC by agar dilution, E. coli DY-1; details: Escherichia coli, DY1, 17 h; E. coli DY-1; agar dilution, Mueller-Hinton agar; read-out: Minimal Inhibitory Concentration (MIC)
In short: as §1

K. pneumoniae NCTC 9632 = assay: MIC by agar dilution, K. pneumoniae NCTC 9632; details: Klebsiella pneumoniae, NCTC9632, 17 h; K. pneumoniae NCTC 9632; agar dilution, Mueller-Hinton agar; read-out: Minimal Inhibitory Concentration (MIC)
In short: as §1

M. morganii DY-1 = assay: MIC by agar dilution, M. morganii DY-1; details: Morganella morganii, DY1, 17 h; M. morganii DY-1; agar dilution, Mueller-Hinton agar; read-out: Minimal Inhibitory Concentration (MIC)
In short: as §1

[2] = system: Ps. aeruginosa ATCC 10145; assay: MIC by agar dilution, Ps. aeruginosa ATCC 10145; details: Pseudomonas aeruginosa, ATCC10145, 17 h, Mueller-Hinton agar, read-out: Minimal Inhibitory Concentration (MIC)
In short: as §1

[3] = system: Ps. aeruginosa NCTC 10490; assay: MIC by agar dilution, Ps. aeruginosa NCTC 10490; details: Pseudomonas aeruginosa, NCTC10490, 17 h, Mueller-Hinton agar, read-out: Minimal Inhibitory Concentration (MIC)
In short: as §1

Ps. aeruginosa DY-2 = assay: MIC by agar dilution, Ps. aeruginosa DY-2; details: Pseudomonas aeruginosa, DY2, 17 h; Ps. aeruginosa DY-2; agar dilution, Mueller-Hinton agar; read-out: Minimal Inhibitory Concentration (MIC)
In short: as §1

P. vulgaris NCTC 8313 = assay: MIC by agar dilution, P. vulgaris NCTC 8313; details: Proteus vulgaris, NCTC8313, 17 h; P. vulgaris NCTC 8313; agar dilution, Mueller-Hinton agar; read-out: Minimal Inhibitory Concentration (MIC)
In short: as §1

Prov. stuartii IFO 12930 = assay: MIC by agar dilution, Prov. stuartii IFO 12930; details: Providencia stuartii, IFO12930, 17 h, Mueller-Hinton agar, read-out: Minimal Inhibitory Concentration (MIC)
In short: as §1

[4] = system: Ser. marcescens IFO 12648; assay: MIC by agar dilution, Ser. marcescens IFO 12648; details: Serratia marcescens, IFO12648, 17 h; Ser. marcescens IFO 12648; agar dilution, Mueller-Hinton agar; read-out: Minimal Inhibitory Concentration (MIC)
In short: as §1

| MIC (B. subtilis ATCC 6633) [µg/mL] | MIC (Staph. aureus ATCC 6538P) [µg/mL] | MIC (Staph. aureus Smith) [µg/mL] | MIC (Staph. aureus C-57) [µg/mL] | MIC (Staph. aureus C-5113) [µg/mL] | MIC (Staph. aureus C-5216) [µg/mL] | MIC [1] [µg/mL] | MIC (Ent. aerogenes IFO 12979) [µg/mL] | MIC (Ent. cloacae IFO 13535) [µg/mL] | MIC (E. coli NIHJ JC-2) [µg/mL] | MIC (E. coli No. 29) [µg/mL] | MIC (E. coli DY-1) [µg/mL] | MIC (K. pneumoniae NCTC 9632) [µg/mL] | MIC (M. morganii DY-1) [µg/mL] | MIC [2] [µg/mL] | MIC [3] [µg/mL] | MIC (Ps. aeruginosa DY-2) [µg/mL] | MIC (P. vulgaris NCTC 8313) [µg/mL] | MIC (Prov. stuartii IFO 12930) [µg/mL] | MIC [4] [µg/mL] | SMILES |
| --- | --- | --- | --- | --- | --- | --- | --- | --- | --- | --- | --- | --- | --- | --- | --- | --- | --- | --- | --- | --- |
| 0.1 (≈ 0.165 µM) | 0.1 (≈ 0.165 µM) | 0.39 (≈ 0.642 µM) | 6.25 (≈ 10.3 µM) | 0.78 (≈ 1.28 µM) | 0.78 (≈ 1.28 µM) | 0.05 (≈ 0.0823 µM) | ≤ 0.006 | 0.2 (≈ 0.329 µM) | 0.025 (≈ 0.0412 µM) | 0.012 (≈ 0.0198 µM) | ≤ 0.006 | 0.025 (≈ 0.0412 µM) | 0.025 (≈ 0.0412 µM) | 1.56 (≈ 2.57 µM) | 1.56 (≈ 2.57 µM) | 12.5 (≈ 20.6 µM) | 0.012 (≈ 0.0198 µM) | ≤ 0.006 | 0.025 (≈ 0.0412 µM) | CO/N=C(\C(=O)N[C@@H]1C(=O)N2C(C(=O)[O-])=C(C[n+]3ccn4c(Br)ccc4c3C)CS[C@H]12)c1nsc(N)n1 [Ex. 59, 7-β-[(Z)-2-(5-amino-1,2,4-thiadiazol-3-yl)-2-methoxyiminoacetamido]-3-(6-bromo-1-methylpyrrolo[1,2-a]pyrazinium-2-yl)methyl-3-cephem-4-carboxylate] |
| 0.2 (≈ 0.338 µM) | 0.05 (≈ 0.0845 µM) | 0.39 (≈ 0.659 µM) | 3.13 (≈ 5.29 µM) | 0.78 (≈ 1.32 µM) | 0.78 (≈ 1.32 µM) | 0.1 (≈ 0.169 µM) | 0.1 (≈ 0.169 µM) | 0.78 (≈ 1.32 µM) | 0.2 (≈ 0.338 µM) | 0.05 (≈ 0.0845 µM) | 0.05 (≈ 0.0845 µM) | 0.1 (≈ 0.169 µM) | 0.39 (≈ 0.659 µM) | 1.56 (≈ 2.63 µM) | 0.78 (≈ 1.32 µM) | 3.13 (≈ 5.29 µM) | 0.012 (≈ 0.0203 µM) | 0.012 (≈ 0.0203 µM) | 0.2 (≈ 0.338 µM) | CO/N=C(\C(=O)N[C@@H]1C(=O)N2C(C(=O)[O-])=C(C[n+]3ccn4c(CO)ccc4c3C)CS[C@H]12)c1nc(N)sc1Cl [Ex. 58, 7-β-[(Z)-2-(2-amino-5-chlorothiazol-4-yl)-2-methoxyiminoacetamido]-3-(6-hydroxymethyl-1-methylpyrrolo[1,2-a]-pyrazinium-2-yl)methyl-3-cephem-4-carboxylate] |
| 0.39 (≈ 0.661 µM) | 0.78 (≈ 1.32 µM) | 1.56 (≈ 2.64 µM) | 25 (≈ 42.4 µM) | 0.78 (≈ 1.32 µM) | 0.78 (≈ 1.32 µM) | 0.1 (≈ 0.169 µM) | 0.025 (≈ 0.0424 µM) | 0.1 (≈ 0.169 µM) | 0.05 (≈ 0.0847 µM) | 0.025 (≈ 0.0424 µM) | 0.025 (≈ 0.0424 µM) | 0.025 (≈ 0.0424 µM) | 0.05 (≈ 0.0847 µM) | 6.25 (≈ 10.6 µM) | 3.13 (≈ 5.3 µM) | 25 (≈ 42.4 µM) | 0.012 (≈ 0.0203 µM) | 0.025 (≈ 0.0424 µM) | 0.05 (≈ 0.0847 µM) | CO/N=C(\C(=O)N[C@@H]1C(=O)N2C(C(=O)[O-])=C(C[n+]3ccn4c(C(C)=O)cc(Cl)c4c3)CS[C@H]12)c1csc(N)n1 [Ex. 34, 7-β-[(Z)-2-(2-aminothiazol-4-yl)2-methoxyiminoacetamido]-3-(6-acetyl-8-chloropyrrolo[1,2-a]pyrazinium-2-yl)methyl-3-cephem-4-carboxylate] |
| 0.2 (≈ 0.389 µM) | 0.39 (≈ 0.758 µM) | 0.78 (≈ 1.52 µM) | 6.25 (≈ 12.1 µM) | 0.78 (≈ 1.52 µM) | 0.78 (≈ 1.52 µM) | 0.1 (≈ 0.194 µM) | 0.012 (≈ 0.0233 µM) | 0.025 (≈ 0.0486 µM) | 0.012 (≈ 0.0233 µM) | 0.012 (≈ 0.0233 µM) | 0.025 (≈ 0.0486 µM) | 0.025 (≈ 0.0486 µM) | 0.05 (≈ 0.0972 µM) | 0.39 (≈ 0.758 µM) | 0.1 (≈ 0.194 µM) | 0.78 (≈ 1.52 µM) | 0.012 (≈ 0.0233 µM) | ≤ 0.006 | 0.025 (≈ 0.0486 µM) | CO/N=C(\C(=O)N[C@@H]1C(=O)N2C(C(=O)[O-])=C(C[n+]3ccn4cccc4c3)CS[C@H]12)c1nsc(N)n1 [Ex. 48, 7-β-[(Z)-2-(5-amino-1,2,4-thiadiazol-3-yl)-2-methoxyiminoacetamido]-3-(pyrrolo [1,2-a]pyrazinium-2-yl)methyl-3-cephem-4-carboxylate] |
